Laboratory results: ChEMBL document CHEMBL1152333 (J Nat Prod, 2009)
Calls of active or inactive are those of the source. The calls are words filed in the database; no cut-off is given here.

Legend:
[1] = biological target: Potassium voltage-gated channel subfamily A member 2 (Homo sapiens) (UniProt P16389); test: Inhibition of Kv1.2 channel expressed in -70 mV-activated HEK293 cells followed by further 10 mV pulse stimulation assessed as slope factor (RVb= 16.3 +/- 1.8 no_unit); assay type: cell-based
Potassium voltage-gated channel subfamily A member 2 (Homo sapiens), sequence (P16389 whole entry): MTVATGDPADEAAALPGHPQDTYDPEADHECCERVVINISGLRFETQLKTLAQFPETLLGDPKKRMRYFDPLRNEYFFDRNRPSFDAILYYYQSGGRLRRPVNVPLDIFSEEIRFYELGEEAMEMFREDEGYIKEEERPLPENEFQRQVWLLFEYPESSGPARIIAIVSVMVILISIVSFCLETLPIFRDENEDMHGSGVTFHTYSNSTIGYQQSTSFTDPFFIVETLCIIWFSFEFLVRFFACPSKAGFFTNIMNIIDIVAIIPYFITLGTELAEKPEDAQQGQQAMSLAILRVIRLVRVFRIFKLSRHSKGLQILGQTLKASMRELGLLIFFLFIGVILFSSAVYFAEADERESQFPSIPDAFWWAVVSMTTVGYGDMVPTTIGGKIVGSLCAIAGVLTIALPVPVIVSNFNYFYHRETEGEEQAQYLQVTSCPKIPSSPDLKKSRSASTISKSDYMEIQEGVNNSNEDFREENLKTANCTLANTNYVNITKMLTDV

[2] = Inhibition of Kv channel in depolarized mouse N2A cells assessed as inhibition of +30 mV-triggered steady state potassium current flow
N2a [3] = test: Steady state inactivation of Kv potassium channel in -70 mV-activated mouse N2A cells followed by further 10 mV pulse stimulation assessed as activation slope factor at 30 uM applied intracellularly; assay type: cell-based
N2a [4] = test: Steady state inactivation of Kv potassium channel in 10 second long prepulse-activated mouse N2A cells followed by further +70 mV pulse stimulation assessed as reduction in half maximal activation potential at 30 uM (RVb=20.9 +/- 2.1 mV); assay type: cell-based
N2a [5] = test: Inactivation of Kv channel in +30 mV-activated mouse N2A cells followed by further +30 mV pulse stimulation assessed as peak K+ current recovery at 30 uM; assay type: cell-based
N2a [6] = test: Inactivation of open state of Kv channel in +30 mV-stimulated mouse N2A cells assessed as peak K+ current recovery at 30 uM treated 4 mins before voltage stimulation followed by restimulation with +30 mV pulse every 20 seconds measured after compound washout; assay type: cell-based
N2a [7] = test: Steady state inactivation of Kv potassium channel in -70 mV-activated mouse N2A cells followed by further 10 mV pulse stimulation assessed as reduction in half maximal activation potential at 30 uM (RVb= 10.8 +/- 2.4 mV); assay type: cell-based
N2a [8] = test: Inactivation of Kv channel in +30 mV-stimulated mouse N2A cells assessed as decay time constant of inactivated K+ current at 30 uM via bath application measured after 3 mins (Rvb=1567 +/- 104 ms); assay type: cell-based
N2a [9] = test: Inactivation of Kv channel in +30 mV-stimulated mouse N2A cells assessed as […] at 30 uM applied extracellularly measured after compound washout (Rvb=1970 +/- 101 ms); assay type: cell-based
N2a [10] = test: Steady state inactivation of Kv potassium channel in -70 mV-activated mouse N2A cells followed by further 10 mV pulse stimulation assessed as change in slope factor potential at 30 uM (RVb= 16.1 +/- 1.1 no_unit); assay type: cell-based
N2a [11] = test: Inactivation of open state of Kv channel in depolarized mouse N2A cells assessed as change in +30 mV-stimulated peak current at 30 uM treated 4 mins before voltage stimulation relative to control; assay type: cell-based
N2a [12] = test: Steady state inactivation of Kv potassium channel in -70 mV-activated mouse N2A cells followed by further 10 mV pulse stimulation assessed as reduction in half maximal activation potential at 30 uM applied intracellularly (RVb= 10.8 +/- 2.4 mV); assay type: cell-based
N2a [13] = test: Inhibition of Kv potassium channel in +10 to +70 mV-stimulated mouse N2A cells at 30 uM; assay type: cell-based
Mus musculus [14] = species: Mus musculus; test: Inhibition of Kv potassium channel in mouse N2A assessed as blockade of channel pore at 10 uM in presence of 140 mM intracellular potassium ion; assay type: cell-based
Mus musculus [15] = species: Mus musculus; test: Inhibition of Kv potassium channel in mouse N2A assessed as blockade of channel pore at 30 uM in presence of 70 mM intracellular potassium ion; assay type: cell-based
N2a [16] = test: Inactivation of Kv channel in +30 mV-stimulated mouse N2A cells assessed as decay time constant of inactivated K+ current at 30 uM applied extracellularly (Rvb=1970 +/- 101 ms); assay type: cell-based
N2a [17] = test: Inhibition of Kv potassium channel-induced current in mouse N2A cells assessed as left shift of activation curve; assay type: cell-based
N2a [18] = test: Inhibition of Kv potassium channel in +10 to +70 mV-stimulated mouse N2A cells at 10 uM; assay type: cell-based
N2a [19] = test: Inactivation of open state of Kv channels in depolarized mouse N2A cells assessed as reduction of +30 mV-stimulated peak current magnitude at 30 uM treated 4 mins before voltage stimulation followed by restimulation with +30 mV pulse every 20 seconds measured after 6 mins relative to control; assay type: cell-based; set-up: scale not given: the % may be the effect or the level left
N2a [20] = test: Inactivation of Kv channel in +30 mV-stimulated mouse N2A cells assessed as decay time constant of inactivated K+ current at 30 uM applied extracellularly measured after compound washout (Rvb=1970 +/- 101 ms); assay type: cell-based
N2a [21] = test: Steady state inactivation of Kv potassium channel in 10 sec long prepulse-activated mouse N2A cells followed by further +70 mV pulse stimulation assessed as change in slope factor potential at 30 uM (Rvb=6.4 +/- 1.1 no_unit); assay type: cell-based

## CC[C@H]1CN2CC[C@]3(C(=O)Nc4ccccc43)[C@@H]2C[C@@H]1/C(=C\OC)C(=O)OC [RHYNCHOPHYLLINE]
[1]
  Activity: 19.4
[2]
  IC50: 7.9 µM
N2a [3]
  Activity: 11.8
N2a [4]
  Activity: -34.6 mV
N2a [5]
  Activity: inactive
N2a [6]
  Activity: 98%
N2a [7]
  Activity: -6.5 mV
N2a [8]
  Activity: 35 ms
N2a [9]
  Activity: 93.3 ms
N2a [10]
  Activity: 23.2
N2a [11]
  Activity: 115%
N2a [12]
  Activity: 7.7 mV
N2a [13]
  Activity: Active
Mus musculus [14]
  Activity: inactive
Mus musculus [15]
  Activity: inactive
N2a [16]
  Activity: 60.8 ms
N2a [17]
  Activity: Active
N2a [18]
  Activity: Active
N2a [19]
  Activity: 72.5%
N2a [20]
  Activity: 1900 ms
N2a [21]
  Activity: 3.7
